The conditions of data set [1]: 298.15 K, 101.33 kPa, Liquid; for speed of sound: Sing-around technique in a fixed-path interferometer.
The nature of data set [2]: refractive index (Na D-line) (dimensionless). The conditions noted are these: 298.15 K, 101.33 kPa, Liquid.

Molecules are shown by their SMILES. ± gives the expanded uncertainty stated by the source.

The mass density is the mass of a sample divided by its volume. For orientation: speed of sound means the propagation velocity of pressure waves in the medium. Usually refractive index stands for a measure of how strongly the sample bends light. As to `CCCCOC(C)=O` [butyl ethanoate], in data set [1], the mass density is on record as 876.35 ± 1.9 kg/m3 and the speed of sound is recorded as 1193.1 ± 2.1 m/s. Besides, the refractive index in data set [2] (Standard Abbe refractometry) turned out to be 1.39191 ± 0.00051.
The matching figures for `COC(C)=O` [methyl ethanoate]: 927.36 ± 0.65 kg/m3, 1154 ± 1.2 m/s and 1.35893 ± 0.00037.
On to `CCCCCCC(=O)OC` [methyl heptanoate], for which, in data set [1], the speed of sound worked out at 1254.6 ± 1.2 m/s. Besides, the mass density in data set [1] (Vibrating tube method) was 875.88 ± 0.23 kg/m3. Besides, the refractive index in data set [2] (refractometer) amounted to 1.40945 ± 0.00021.
With `Cc1ccccc1` [toluene], in data set [1], the mass density is on record as 862.34 ± 0.18 kg/m3 and the speed of sound was found to be 1306.3 ± 0.7 m/s. Also, the refractive index in data set [2] (Standard Abbe refractometry) was determined as 1.4939 ± 0.00031.
